Data reported in patent publication US9238005B2, “Dry powder formulations and methods for treating pulmonary diseases” (Pulmatrix Operating Company, Inc., priority 2009, dated 2016).

Key:
[1] = Heat of solution in HBSS buffer; format: physicochemical; settings: Avg.; for ΔH (kJ/mol) / ΔH (kcal/mol): HBSS buffer, per mol Ca, leucine per mol Leu; for Q / ΔT (deg. C): dissolution in HBSS buffer
[2] = Volume median geometric diameter (x50/VMGD) and GSD by laser diffraction, HELOS/RODOS; format: physicochemical
Experimental: Volume median diameter (×50), which may also be referred to as volume median geometric diameter (VMGD), was determined using a laser diffraction technique. […] The RODOS disperser applies a shear force to a sample of particles, controlled by the regulator pressure (typically set at 1.0 bar with orifice ring pressure set at 7 mbar) of the incoming compressed dry air. […] The dispersed particles travel through a laser beam where the resulting diffracted light pattern produced is collected, typically using an R2 lens, by a series of detectors.

[3] = Fine particle fraction, two-stage collapsed Andersen Cascade Impactor (ACI-2); settings: spray dried from 70% ethanol, 50 g/L
[4] = Dispersibility from passive dry powder inhalers (CEPM, Dv50, FPF vs inhalation energy); format: physicochemical; settings: for average CEPM, share of capsule fill weight: 9.2 Joules (60 L/min for 2 L); for average Dv50: 9.2 Joules; for Dv50: measured lower energies
Experimental: The dispersibility of various powder formulations was investigated by measuring the geometric particle size and the percentage of powder emitted from capsules when inhaling on dry powder inhalers with flow rates representative of patient use. The particle size distribution and weight change of the filled capsules were measured for multiple powder formulations as a function of flow rate, inhaled volume and fill weight in 2 passive dry powder inhalers.
In order to relate the dispersion of powder at different flow rates, volumes, and from inhalers of different resistances, the energy required to perform the inhalation maneuver was calculated and the particle size and dose emission data plotted against the inhalation energy. Inhalation energy was calculated as E=R^2Q^2V where E is the inhalation energy in Joules, R is the inhaler resistance in kPa^1/2/LPM, Q is the steady flow rate in L/min and V is the inhaled air volume in L.

[5] = high resistance RS-01, 25 mg fill weight
[6] = high resistance RS-01, 40 mg fill weight
[7] = RS.01.HR, fill 25 mg, 15 LPM, 4 s, 0.29 J
[8] = RS.01.HR, fill 25 mg, 20 LPM, 3 s, 0.51 J
[9] = RS.01.HR, fill 25 mg, 30 LPM, 2 s, 1.15 J
[10] = RS.01.HR, fill 25 mg, 60 LPM, 2 s, 9.18 J
[11] = RS.01.HR, fill 40 mg, 15 LPM, 4 s, 0.29 J
[12] = RS.01.HR, fill 40 mg, 20 LPM, 3 s, 0.51 J
[13] = RS.01.HR, fill 40 mg, 30 LPM, 2 s, 1.15 J
[14] = RS.01.HR, fill 40 mg, 60 LPM, 2 s, 9.18 J
[15] = RS.01.LR, fill 25 mg, 60 LPM, 2 s, 2.85 J
[16] = RS.01.LR, fill 40 mg, 60 LPM, 2 s, 2.85 J
[17] = all measured lower energies (<9.2 Joules), 25 and 40 mg fill weights

What does the source list for O.O.[Ca+2].[Cl-].[Cl-] [CaCl2.2H2O]?
ΔH (kJ/mol) [1]: -50.6 kJ/mol; ΔH (kcal/mol) [1]: -12.1 kcal/mol; Q [1]: 2.93 cal; ΔT (deg. C) [1]: 0.024 deg. C

Which “ΔH (kJ/mol)” value [1] does the source give for CC(C)C[C@H](N)C(=O)O [Leucine] here?
The value was -6 kJ/mol.

What about the “ΔH (kcal/mol)” value [1] of the same molecule?
Its value is -1.5 kcal/mol.

What about the “Q” value [1] of the same molecule?
The value was 0.37 cal.

What about the “ΔT (deg. C)” value [1] of the same molecule?
Its value is 0.003 deg. C.

For [Cl-].[Cl-].[Mg+2] [Pure magnesium chloride, magnesium chloride], which “median volume particle size” value ([2]; spray dried from 70% ethanol, 50 g/L) is on record?
Its value is 4 microns.

And the “median particle size (HELOS/RODOS)” value ([2]; spray dried from D.I. water, 20 g/L)?
The value was 21 microns.

And the “fine particle fraction less than 5.6 microns” value [3]?
The value was 19%.

For “albuterol sulfate [Micronized Albuterol 073-001-02-039A]”, which “average CEPM, share of capsule fill weight” value [4, 5] is on record?
The value was 93%.

And the “average CEPM, share of capsule fill weight” value [4, 6]?
The value was 84%.

What about the “average Dv50” value [4, 5] of the same molecule?
Its value is 1.8 μm.

And the “average Dv50” value [4, 6]?
The value was 1.6 μm.

What about the “Mean CEPM” value [4, 7] of the same molecule?
Its value is 3.12 mg.

What about the “Mean Dv50” value [4, 7] of the same molecule?
The value was 16.76 μm.

And the “Mean FPF, % < 5 μm” value [4, 7]?
Its value is 13.00%.

And the “Mean CEPM” value [4, 8]?
The value was 5.00 mg.

What about the “Mean Dv50” value [4, 8] of the same molecule?
The value was 8.40 μm.

What about the “Mean FPF, % < 5 μm” value [4, 8] of the same molecule?
The value was 32.10%.

What about the “Mean CEPM” value [4, 9] of the same molecule?
The value was 7.08 mg.

And the “Mean Dv50” value [4, 9]?
The value was 3.86 μm.

What about the “Mean FPF, % < 5 μm” value [4, 9] of the same molecule?
The value was 59.44%.

And the “Mean CEPM” value [4, 10]?
The value was 23.18 mg.

And the “Mean Dv50” value [4, 10]?
The value was 1.77 μm.

And the “Mean FPF, % < 5 μm” value [4, 10]?
The value was 81.65%.

What about the “Mean CEPM” value [4, 11] of the same molecule?
Its value is 2.43 mg.

And the “Mean Dv50” value [4, 11]?
The value was 17.63 μm.

And the “Mean FPF, % < 5 μm” value [4, 11]?
The value was 10.73%.

And the “Mean CEPM” value [4, 12]?
Its value is 4.97 mg.

And the “Mean Dv50” value [4, 12]?
Its value is 6.34 μm.

What about the “Mean FPF, % < 5 μm” value [4, 12] of the same molecule?
The value was 42.24%.

What about the “Mean CEPM” value [4, 13] of the same molecule?
The value was 8.55 mg.

And the “Mean Dv50” value [4, 13]?
The value was 3.13 μm.

And the “Mean FPF, % < 5 μm” value [4, 13]?
The value was 67.18%.

What about the “Mean CEPM” value [4, 14] of the same molecule?
Its value is 33.40 mg.

And the “Mean Dv50” value [4, 14]?
Its value is 1.60 μm.

What about the “Mean FPF, % < 5 μm” value [4, 14] of the same molecule?
The value was 84.30%.

What about the “Mean CEPM” value [4, 15] of the same molecule?
The value was 15.28 mg.

What about the “Mean Dv50” value [4, 15] of the same molecule?
Its value is 2.57 μm.

And the “Mean FPF, % < 5 μm” value [4, 15]?
Its value is 75.01%.

And the “Mean CEPM” value [4, 16]?
Its value is 18.88 mg.

What about the “Mean Dv50” value [4, 16] of the same molecule?
The value was 2.62 μm.

What about the “Mean FPF, % < 5 μm” value [4, 16] of the same molecule?
Its value is 73.98%.

What about the CEPM [4, 17] of the same molecule?
The CEPM was “below 10 mg”.

And the “CEPM, share of capsule fill weight” value [4, 17]?
Its value is under 30%.

And the Dv50 ([4]; 25 mg fill weight)?
Its Dv50 is 3.9 μm.

What about the Dv50 ([4]; 40 mg fill weight) of the same molecule?
Its Dv50 is 3.1 μm.
